ChEMBL document CHEMBL1201862, “PubChem BioAssay data set” (2004)
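The compound was tested at five concentrations on cells cultured in 96-well plates, with a 48-hour exposure period. GI50: concentration for 50% inhibition of growth.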 Active and inactive are the calls of the source. No stated cut-off is given here; in the data, active = GI50 up to about 1.1 µM and inactive = higher.

Key:
Experiment in all cases: growth of human tumour cells (NCI), 48 h
RPMI-8226 = system: RPMI-8226
LOX IMVI = system: LOX IMVI
786-0 = system: 786-0
Malme-3M = system: Malme-3M
SF-268 = system: SF-268
COLO 205 = system: COLO 205
KM-20L2 = system: KM-20L2
SN12C = system: SN12C
OVCAR-3 = system: OVCAR-3
SK-MEL-5 = system: SK-MEL-5
TK-10 = system: TK-10
Hs-578T = system: Hs-578T
HCC 2998 = system: HCC 2998
HT-29 = system: HT-29
ACHN = system: ACHN

Row | SMILES | GI50 (RPMI-8226) | GI50 (LOX IMVI) | GI50 (786-0) | GI50 (Malme-3M) | GI50 (SF-268) | GI50 (COLO 205) | GI50 (KM-20L2) | GI50 (SN12C) | GI50 (OVCAR-3) | GI50 (SK-MEL-5) | GI50 (TK-10) | GI50 (Hs-578T) | GI50 (HCC 2998) | GI50 (HT-29) | GI50 (ACHN)
1 | CC[C@@]1(O)C(=O)OCc2c1cc1n(c2=O)Cc2cc3c(OC)cccc3nc2-1 | 0.0158 µM (active) | < 0.1 µM (active) | 0.211 µM (active) | 0.348 µM (active) | < 0.1 µM (active) | 1.21 µM (inactive) | 0.0622 µM (active) | < 0.1 µM (active) | 0.521 µM (active) | 0.116 µM (active) | 3.74 µM (inactive) | 12.8 µM (inactive) |  |  | 
2 | CC(=O)O[C@H]1C(=O)[C@@]2(C)C(C(OC(=O)c3ccccc3)C3[C@@H](O)C(OC(=O)[C@@H](O)[C@H](NC(=O)c4ccccc4)c4ccc(C(F)(F)F)cc4)C(C)=C1C3(C)C)[C@]1(OC(C)=O)CO[C@@H]1C[C@@H]2O (stereo not given in full) | 10.3 µM (inactive) | 16.1 µM (inactive) | > 25 µM (inactive) | > 25 µM (inactive) | > 25 µM (inactive) | 9.55 µM (inactive) | 8.73 µM (inactive) | > 25 µM (inactive) | 17.7 µM (inactive) | 8.26 µM (inactive) | > 25 µM (inactive) |  | 16.2 µM (inactive) | 12.6 µM (inactive) | > 25 µM (inactive)
3 | O=C(Cc1ccccc1)NN1C(=O)C(Cl)C1c1cc(Br)ccc1O (stereo not given) | 3.72 µM (inactive) | 4.15 µM (inactive) | 5.89 µM (inactive) | 13.5 µM (inactive) | 1.95 µM (inactive) | 14.1 µM (inactive) | 9.64 µM (inactive) | 7.29 µM (inactive) | 2.56 µM (inactive) | 7.59 µM (inactive) | 21.6 µM (inactive) |  | 9.46 µM (inactive) | 7.64 µM (inactive) | 2.76 µM (inactive)
